Assay results: US10961187B2, “Substituted N-acetyl-L-cysteine derivatives and related compounds” (Promentis Pharmaceuticals, Inc., priority 2013, dated 2021)

Tests used:
Rats = assay: Elevated-plus maze; type: in vivo; details: for time spent on the open arms: one hour prior to testing, five minute session
Protocol: Rats were tested in a standard elevated plus maze; testing occurred in a dimly illuminated room using only two lights mounted over the maze. Animals were allowed to habituate to the room for at least one hour prior to treatment. One hour prior to testing, rats received a compound of the present invention (0-30 mg/kg, P.O.). For testing, the rat was placed in the elevated plus maze for five minutes, alternating the starting position between facing an open arm and facing a closed arm. The session was recorded and an observer blind to treatment recorded the number of explorations, entries and time spent in the open arm. Explorations were defined as the rat placing two feet into an open arm without fully entering said arm. Entries were defined as the rat placing all four feet in an open arm. Time of entry in the open arm was recorded from the time the rat placed four feet in the open arm until two of the rats' feet entered the open square.

[1] = Brain levels of glutathione following oral administration; type: in vivo; details: C57BL/6 mice, 100 mg/kg oral, 4 hours; for glutathione in the brain: brain tissue
Protocol: A compound of the invention was administered orally to C57BL/6 mice at either 10 or 100 mg/kg. Brain samples were collected at 0.25, 0.50, 1, 2 and 4 hours following the oral administration. Levels of NAC and glutathione were quantified in the brain samples using liquid chromatography-mass spectrometry (LC-MS/MS).

[2] = system: mixed cortical cell cultures containing glial and neuronal cells; assay: In vitro thiol experiment: intracellular cysteine levels; type: cell-based, mice; details: for intracellular cysteine concentration: raw concentration in collected samples
Protocol: To further resolve by what process the inhibition of ^14C-cystine uptake is occurring intracellular cysteine levels were determined.
Mixed cortical cell cultures containing glial and neuronal cells were prepared from fetal (15-16 day gestation) mice as previously described. (Lobner D, “Comparison of the LDH and MTT assays for quantifying cell death: validity for neuronal apoptosis?,” J. Neurosci. Methods, 96(2): 147-152 (Mar. 15, 2000)). Dissociated cortical cells were plated on 24-well plates coated with poly-D-lysine and laminin in Eagles' Minimal Essential Medium (MEM, Earle's salts, supplied glutamine-free) supplemented with 5% heat-inactivated horse serum, 5% fetal bovine serum, 2 mM glutamine and glucose (total 21 mM). Cultures were maintained in humidified 5% CO2 incubators at 37° C. Mice were handled in accordance with a protocol approved by our institutional animal care committee and in compliance with the Public Health service Policy on Humane Care and Use of Laboratory Animals.
Mixed cortical cell cultures, 14 days in vitro (this allows for a confluent layer of astrocytes to form and the neurons to generate a complex network of axons and dendrites), were washed into bicarbonate buffered salt solution. After 1 hour, 3, 10, 30, 100 μM of Pro-4047 or Pro-4051 was added and the cells were incubated for 30 or 90 minutes, after which the cells were thoroughly washed and the collected in 250 μL of aqueous mobile phase (50 mM citric acid, 10 mM octanesulfonic acid, pH 2.8) was added, after 10 minutes at 37° C. the cells were scraped from the plates and transferred to 1.5 mL tubes for analysis.
Samples were then sonicated with a Fisher Scientific 60 Sonic Dismembrator. One fraction of this homogenate was analyzed with the Pierce BCA (bicinchoninic acid) method to determine protein concentration. The other fraction was filtered using 3 K molecular weight cutoff, polyethersulfone centrifugal protein filters, and analyzed for thiol content using HPLC (ALF-115 column, 150×1.0 mm, 3 μm C18 [Pro-2023 analysis utilized a Phenomenex Kinetex 2.6 μM, C18, 100 A, 150×2.1 mm and Pro-4047 analysis utilized a Phenomenex Kinetex X-B, C18, 100 A, 2.6 μm, 150×4.4 mm]; mobile phase: 50 mM citric acid, 10 mM octanesulfonic acid, 2% acetonitrile, pH 2.8, 50 μL/min flow rate [Pro-2023 analysis utilized a 100 μL/min flow rate and Pro-4047 analysis utilized 1% acetonitrile and 0.4 mL/min flow rate] with electrochemical detection (Decade II, Au working electrode, Flex Cell HyREF, 0.55V, Antec Leyden, Netherlands [Pro-4047 analysis utilized a Magic Diamond working electrode and 1.8V]).
When the intracellular thiol assay was initiated, all data was normalized to protein concentration. […] The data presented herein represents the raw cysteine concentrations in the collected samples. […] Pro-4006 at 10 μM increases intracellular cysteine concentration to 0.07 μM at 30 minutes (approximately 3.5 times that of the control; FIG. 11). […] Pro-4047 at 300 μM increases intracellular cysteine concentration to 0.74 μM at 90 minutes (approximately 4.9 times that of the control; FIG. 13). […] Thus, based on the 3 in vitro experiments it is apparent that Pro-2023, Pro-4006, Pro-4011, Pro-4047, Pro-4051 and Pro-4051a behave as effective cysteine prodrugs.

| Compound | increase of time spent on the open arm (Rats; 10 or 30 mg/kg PO) | time spent on the open arms (Rats; 10 or 30 mg/kg PO) | glutathione in the brain, times that of the vehicle [1] | glutathione in the brain [1] | intracellular cysteine, times that of the control ([2]; 100 μM compound, 30 minutes) | intracellular cysteine concentration ([2]; 100 μM compound, 30 minutes) [µM] | increase of time on the open arms over control (Rats; 10 mg/kg PO) | time spent on the open arms (Rats; 10 mg/kg PO) | intracellular cysteine, times that of the control ([2]; 300 μM compound, 90 minutes) | intracellular cysteine concentration ([2]; 300 μM compound, 90 minutes) [µM] | intracellular cysteine, times that of the control ([2]; 100 μM compound, 90 minutes) | intracellular cysteine concentration ([2]; 100 μM compound, 90 minutes) [µM] |
| --- | --- | --- | --- | --- | --- | --- | --- | --- | --- | --- | --- | --- |
| CC(=O)N[C@@H](CSC(=O)c1ccc(C)cc1)C(=O)O [Pro-2023, (2R)-2-Acetylamino-3-(4-methyl-benzoylsulfanyl)-propionic acid] | about 100% | around 27 seconds | about 2 times | about 200 nmol/g | approximately 1.6 times | 0.16 | – | – | – | – | – | – |
| CCOC(=O)[C@H](CSC(=O)C1CSC(=O)N1)NC(C)=O (stereo partly drawn) [Pro-4047, Ethyl (2R)-2-acetamido-3-(2-oxo-1,3-thiazolidine-4-carbonylsulfanyl) propanoate] | – | – | – | – | – | – | not a significant increase over control | around 22 seconds | approximately 4.9 times | 0.74 | – | – |
| CCOC(=O)[C@H](CSC(=O)c1ccc(C)cc1)NC(C)=O [Pro-4051, Ethyl (2R)-2-acetamido-3-(4-methylbenzoylsulfanyl)propanoate] | – | – | about 1.05 times | about 1960 nmol/g | – | – | ~150% | around 48 seconds | – | – | approximately 4 times | 0.36 |
